Measured values from PubChem BioAssay AID330 (DTP/NCI, 2004).
“And” between values parts separate entries of the source, which are not always exact repeats. Identical values can stand only once. Toxic doses and inconclusive results are not listed. The calls were made as follows: active = survival T/C of 150% or more; inactive = T/C below 125% in these data.

Test system: P388 leukemia ip, CD2F1 mice, survival T/C
Assay: NCI In Vivo Anticancer Drug Screen. Data for tumor model P388 Leukemia (intraperitoneal) in CD2F1 (CDF1) mice
Conditions: endpoint: median survival time, higher = longer survival
Summary of the method: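 Mice carrying the transplanted tumor received test compound or vehicle. Survival was recorded in each group, and the value is the treated-group measurement divided by that of the vehicle-treated control group.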

[1] = dose: 100.0 mg/kg/injection, schedule: Q04DX003 (ip), vehicle: Klucel (hydroxypropylcellulose) (HPC)
[2] = dose: 200.0 mg/kg/injection, schedule: Q04DX003 (ip), vehicle: Klucel (hydroxypropylcellulose) (HPC)
[3] = dose: 60.0 mg/kg/injection, schedule: Q01DX005 (ip), vehicle: Klucel (hydroxypropylcellulose) (HPC)
[4] = dose: 120.0 mg/kg/injection, schedule: Q01DX005 (ip), vehicle: Klucel (hydroxypropylcellulose) (HPC)
[5] = dose: 50.0 mg/kg/injection, schedule: Q01DX005 (ip), vehicle: saline with Tween-80
[6] = dose: 60.0 mg/kg/injection, schedule: Q01DX005 (ip), vehicle: saline with Tween-80
[7] = dose: 120.0 mg/kg/injection, schedule: Q01DX005 (ip), vehicle: saline with Tween-80
[8] = dose: 240.0 mg/kg/injection, schedule: Q01DX005 (ip), vehicle: saline with Tween-80

Measured: T/C

CC(=O)CC(C)(C)C(C#N)c1ccccc1 (stereo unspecified)
inactive: [1] 99 % of control | [2] 115 % of control | dose: 400.0 mg/kg/injection, schedule: Q04DX003 (ip), vehicle: Klucel (hydroxypropylcellulose) (HPC) 98 % of control

COc1ccc2c(c1)[C@@]13CCCC[C@H]1[C@@H](C2)N(C)CC3(C)O (stereo partly specified)
inactive: dose: 100.0 mg/kg/injection, schedule: Q04DX002 (ip), vehicle: Klucel (hydroxypropylcellulose) (HPC) 97 % of control | dose: 200.0 mg/kg/injection, schedule: Q04DX002 (ip), vehicle: Klucel (hydroxypropylcellulose) (HPC) 105 % of control

Cc1nnc(CN2CCOCC2)n1-c1ccc(Cl)cc1C(=O)c1ccccc1
inactive: dose: 25.0 mg/kg/injection, schedule: Q01DX009 (ip), vehicle: Klucel (hydroxypropylcellulose) (HPC) 86 % of control | dose: 50.0 mg/kg/injection, schedule: Q01DX009 (ip), vehicle: Klucel (hydroxypropylcellulose) (HPC) 96 % of control | dose: 100.0 mg/kg/injection, schedule: Q01DX009 (ip), vehicle: Klucel (hydroxypropylcellulose) (HPC) 105 % of control

Cc1cc2c(cc1C)NC1=C(N2)OC(c2ccc3c(c2)OCO3)C1=O (stereo unspecified)
inactive: dose: 30.0 mg/kg/injection, schedule: Q01DX005 (ip), vehicle: Klucel (hydroxypropylcellulose) (HPC) 88 % of control | [3] 101 % of control and 97 % of control | [4] 100 % of control and 104 % of control

Cc1ccc(C(c2ccccc2)c2ccc(C)cc2O)c(O)c1
inactive: dose: 50.0 mg/kg/injection, schedule: Q01DX009 (ip), vehicle: saline with Tween-80 118 % of control | dose: 100.0 mg/kg/injection, schedule: Q01DX009 (ip), vehicle: saline with Tween-80 105 % of control

N#Cc1c(N)nsc1N1CCOCC1
inactive: dose: 12.5 mg/kg/injection, schedule: Q01DX005 (ip), vehicle: saline with Tween-80 98 % of control | dose: 25.0 mg/kg/injection, schedule: Q01DX005 (ip), vehicle: saline with Tween-80 104 % of control | [5] 98 % of control

CC(=O)OCc1c(-c2ccccc2)nc2sccn12
inactive: dose: 100.0 mg/kg/injection, schedule: Q01DX001 (ip), vehicle: Klucel (hydroxypropylcellulose) (HPC) 98 % of control | dose: 200.0 mg/kg/injection, schedule: Q01DX001 (ip), vehicle: Klucel (hydroxypropylcellulose) (HPC) 100 % of control

O=C(O)c1ccc2n[se]nc2c1
inactive: [6] 96 % of control | [7] 105 % of control | [8] 97 % of control

CCCC(O)CCC(O)=C1C(=O)CCC1=O (stereo unspecified)
inactive: dose: 50.0 mg/kg/injection, schedule: Q01DX005 (ip), vehicle: saline 107 % of control | dose: 100.0 mg/kg/injection, schedule: Q01DX005 (ip), vehicle: saline 107 % of control | dose: 200.0 mg/kg/injection, schedule: Q01DX005 (ip), vehicle: saline 107 % of control

CNC(=O)Nc1ccc(C2(C)SCCS2)cc1
inactive: [6] 97 % of control | [7] 87 % of control | [8] 90 % of control

Oc1cc2c(ccc3ccccc32)c2c1CCC2
inactive: dose: 6.25 mg/kg/injection, schedule: Q01DX001 (ip), vehicle: Klucel (hydroxypropylcellulose) (HPC) 106 % of control | dose: 12.5 mg/kg/injection, schedule: Q01DX001 (ip), vehicle: Klucel (hydroxypropylcellulose) (HPC) 104 % of control | dose: 25.0 mg/kg/injection, schedule: Q01DX001 (ip), vehicle: Klucel (hydroxypropylcellulose) (HPC) 119 % of control

CC(C)C(NC(=O)C(C)N(C)C)C(=O)N1CCC2Oc3ccc(cc3)/C=C\NC(=O)C(Cc3ccccc3)NC(=O)C21 (stereo unspecified)
inactive: dose: 100.0 mg/kg/injection, schedule: Q04DX003 (ip), vehicle: saline with Tween-80 97 % of control | dose: 200.0 mg/kg/injection, schedule: Q04DX003 (ip), vehicle: saline with Tween-80 95 % of control | dose: 400.0 mg/kg/injection, schedule: Q04DX003 (ip), vehicle: saline with Tween-80 96 % of control

COC(=O)c1[nH]c(=O)c(C#N)c(C(=O)OC)c1C(=O)c1ccc2ccccc2c1
inactive: [3] 90 % of control | [4] 88 % of control | dose: 240.0 mg/kg/injection, schedule: Q01DX005 (ip), vehicle: Klucel (hydroxypropylcellulose) (HPC) 97 % of control

COc1cc2c(cc1OC)C(C)N1CCc3cc(OC)c(OC)cc3C1C2 (stereo unspecified)
inactive: dose: 1.56 mg/kg/injection, schedule: Q01DX009 (ip), vehicle: Klucel (hydroxypropylcellulose) (HPC) 103 % of control | dose: 3.12 mg/kg/injection, schedule: Q01DX009 (ip), vehicle: Klucel (hydroxypropylcellulose) (HPC) 98 % of control

CCOC(=O)c1c(C)c2c(n1C)CCc1sc(N)nc1-2
inactive: dose: 50.0 mg/kg/injection, schedule: Q04DX003 (ip), vehicle: Klucel (hydroxypropylcellulose) (HPC) 100 % of control | [1] 101 % of control | [2] 94 % of control

Nc1ccc2nc3cc(Nc4ccccc4)c(=Nc4ccccc4)cc-3n(-c3ccccc3)c2c1
inactive: [5] 100 % of control | dose: 100.0 mg/kg/injection, schedule: Q01DX005 (ip), vehicle: saline with Tween-80 98 % of control | dose: 200.0 mg/kg/injection, schedule: Q01DX005 (ip), vehicle: saline with Tween-80 93 % of control

O=C1CN=C(c2ccccc2)c2cc(Cl)ccc2N1CC1CC1
inactive: dose: 100.0 mg/kg/injection, schedule: Q04DX003 (ip), vehicle: saline 100 % of control | dose: 200.0 mg/kg/injection, schedule: Q04DX003 (ip), vehicle: saline 94 % of control | dose: 400.0 mg/kg/injection, schedule: Q04DX003 (ip), vehicle: saline 101 % of control

CC1(C)OC2OC(CN=NNc3ccc([N+](=O)[O-])cc3)C3OC(C)(C)OC3C2O1 (stereo unspecified)
inactive: dose: 60.0 mg/kg/injection, schedule: Q01DX005 (ip), vehicle: Klucel + Tween-80 100 % of control | dose: 120.0 mg/kg/injection, schedule: Q01DX005 (ip), vehicle: Klucel + Tween-80 91 % of control | dose: 240.0 mg/kg/injection, schedule: Q01DX005 (ip), vehicle: Klucel + Tween-80 87 % of control

C[n+]1ccc2c([N+](=O)[O-])cccc2c1
inactive: dose: 6.25 mg/kg/injection, schedule: Q01DX005 (ip), vehicle: saline 103 % of control | dose: 12.5 mg/kg/injection, schedule: Q01DX005 (ip), vehicle: saline 112 % of control

COC(=O)Cc1[nH]ncc1C(=O)OC
inactive: dose: 60.0 mg/kg/injection, schedule: Q01DX005 (ip), vehicle: saline 106 % of control | dose: 120.0 mg/kg/injection, schedule: Q01DX005 (ip), vehicle: saline 103 % of control | dose: 240.0 mg/kg/injection, schedule: Q01DX005 (ip), vehicle: saline 96 % of control

CCOC(=O)C(=O)Nc1oc(C)c(C)c1C#N
inactive: dose: 12.5 mg/kg/injection, schedule: Q01DX009 (ip), vehicle: saline + alcohol 100 % of control and 107 % of control and 118 % of control | dose: 25.0 mg/kg/injection, schedule: Q01DX009 (ip), vehicle: saline + alcohol 109 % of control and 116 % of control and 124 % of control | dose: 25.0 mg/kg/injection, schedule: Q04DX003 (ip), vehicle: saline + alcohol 115 % of control | dose: 50.0 mg/kg/injection, schedule: Q04DX003 (ip), vehicle: saline + alcohol 106 % of control | dose: 100.0 mg/kg/injection, schedule: Q01DX001 (ip), vehicle: saline + alcohol 95 % of control | dose: 100.0 mg/kg/injection, schedule: Q01DX009 (ip), vehicle: saline + alcohol 110 % of control and 93 % of control | dose: 100.0 mg/kg/injection, schedule: Q04DX003 (ip), vehicle: saline + alcohol 112 % of control | dose: 200.0 mg/kg/injection, schedule: Q01DX001 (ip), vehicle: saline + alcohol 96 % of control

O=[N+]([O-])c1ccc(N/N=C(\CI)c2ccccc2)c([N+](=O)[O-])c1
inactive: dose: 75.0 mg/kg/injection, schedule: Q01DX001 (ip), vehicle: saline with Tween-80 105 % of control | dose: 150.0 mg/kg/injection, schedule: Q01DX001 (ip), vehicle: saline with Tween-80 105 % of control | dose: 300.0 mg/kg/injection, schedule: Q01DX001 (ip), vehicle: saline with Tween-80 120 % of control
